Reference: patent US20030040510A1, “Selective estrogen receptor modulators in combination with estrogens” (Endorecherche, Inc., priority 2000, published 2003)
Where two headings read alike, the source gives them in different places.

Columns and labels:
[1] = test system: uterus and vagina of ovariectomized mice; assay: Uterine and vaginal weight in ovariectomized mice treated or not with estrone (9 days oral); format: in vivo, BALB/c mice; conditions: for Inhibition of estrone-stimulated uterine weight / Inhibition of estrone-stimulated vaginal weight: 9 days, OVX mice + E1
Procedure: (St-Constant, Quebec, Canada) and housed 5 per cage in a temperature (23±1° C.)—and light (12 h light/day, lights on at 7:15)—controlled environment. The mice were fed rodent chow and tap water ad libitum. […] Ten mice were kept intact as controls. […] Compounds were dissolved in ethanol (4% final concentration) and administered in 0.4% methylcellulose. Mice in the intact and OVX control groups received the vehicle alone (4% ETOH-0.4% methylcellulose) during the 9-day period. The animals were killed by exsanguination at the abdominal aorta on the 11th morning following ovariectomy.

[2] = test system: ovariectomized female rats; assay: Prevention of bone loss, body fat, serum cholesterol and ALP, 3-month treatment of OVX rats (Example 5A, experiment 1); format: in vivo, Sprague-Dawley rats; conditions: OVX rats, 3 months
Procedure: Ten to twelve week-old female Sprague-Dawley rats (Crl:CD(SD)Br) (Charles River Laboratory, St-Constant, Canada) weighing approximately 220-270 g at start of treatment were used. The animals were acclimatized to the environmental conditions (temperature: 22±3° C.; humidity: 50±20%; 12-h light-12-h dark cycles, lights on at 07:15 h) for at least 1 week before starting the experiments. The animals were housed individually and were allowed free access to tap water and a pelleted certified rodent feed (Lab Diet 5002, Ralston Purina, St-Louis, Mo.). Experiments were conducted in an animal facility approved by the Canadian Council on Animal Care (CCAC) and the Association for Assessment and Accreditation of Laboratory Animal Care (AAALAC) in accordance with the CCAC Guide for Care and Use of Experimental Animals.
On day 1 of the study, the animals of the appropriate groups were bilaterally ovariectomized (OVX) under isoflurane anesthesia. […] Treatments were initiated on day 2 of the study and were performed once daily during 3 months.
After 3 months (experiment 1) or 26 weeks (experiment 2) of treatment, individual rats under Isoflurane anesthesia had their whole body skeleton and lumbar spine scanned using dual energy x-ray absorptiometry (DEXA; QDR 4500A, Hologic, Waltham, Mass.) and a Regional High Resolution Scan software. The bone mineral density (BMD) of the lumbar spine (vertebrae L2 to L4) and the total body composition (fat percentage) were determined.
After 3 months (experiment 1) or 26 weeks (experiment 2) of treatment, blood samples were collected at the jugular vein from overnight fasted animals (under Isoflurane anesthesia). Samples were processed for serum preparation and frozen at −80° C. until assay. Serum cholesterol levels and alkaline phospatase activity (ALP) were determined using the Boehringer Mannheim Diagnostic Hitachi 911 Analyzer (Boehringer Mannheim Diagnostic Laboratory Systems).

[3] = test system: human Ishikawa cells; assay: Alkaline phosphatase activity in human endometrial adenocarcinoma Ishikawa cells; format: cell-based; conditions: 5 days
Procedure: The human Ishikawa cell line derived from a well differentiated endometrial adenocarcinoma was kindly provided by Dr. Erlio Gurpide, The Mount Sinai Medical Center, New York, N.Y. The Ishikawa cells were routinely maintained in Eagle's Minimum Essential Medium (MEM) containing 5% (vol/vol) FBS (Fetal Bovine Serum) and supplemented with 100 U/ml penicillin, 100 μg/ml streptomycin, 0.1 mM non-essential amino acids solution. Cells were plated in Falcon T75 flasks at a density of 1.5×10^6 cells at 37° C.
Twenty four hours before the start of the experiment, the medium of near confluent Ishikawa cells was replaced by fresh estrogen-free basal medium (EFBM) consisting of a 1:1 (v:v) mixture of phenol red-free Ham's F-12 and Dulbecco's Modified Eagle's Medium (DMEM) supplemented with 100 U/mL penicillin, 100 μg/mL streptomycin, 2 mM glutamine, and 5% FBS treated twice with dextran-coated charcoal to remove endogenous steroids. Cells were then harvested by 0.1% pancreatin (Sigma) and 0.25 mM HEPES, resuspended in EFBM and plated in Falcon 96, well flat-bottomed microtiter plates at a density of 2.2×10^4 cells/well in a volume of 100 μl and allowed to adhere to the surface of the plates for 24 h. Thereafter, medium was replaced with fresh EFBM containing the indicated concentrations of compounds in a final volume of 200 μl. Cells were incubated for five days, with a medium change after 48 h.
At the end of the incubation period, microtiter plates were inverted and growth medium was decanted. The plates were rinsed with 200 μl by well of PBS (0.15M NaCl, 10 mM sodium phosphate, pH 7.4). PBS was then removed from the plates while carefully leaving some residual PBS, and the wash procedure was repeated once. The buffered saline was then decanted, and the inverted plates were blotted gently on a paper towel. Following replacement of the covers, the plates were placed at −80° C. for 15 min followed by thawing at room temperature for 10 min. […] Plates were monitored at 405 nm in an enzyme-linked immunosorbent assay plate reader (BIO-RAD, model 2550 EIA Reader).

[4] = test system: MCF-7 cells; assay: Proliferation of human breast cancer MCF-7 cells (DNA content); format: cell-based; conditions: for IC50: Homo sapiens, read-out: Inhibition of 1nM E2 stimulation of DNA by tested compounds IC50
Procedure: The MCF-7 human breast adenocarcinoma cell line was derived from the pleural effusion of a patient. MCF-7 cells were used between passages 148 and 165 and subcultured weekly
Cells in their late logarithmic growth phase were harvested with 0.1% pancreatin (Sigma) and resuspended in the appropriate medium containing 50 ng bovine insulin/ml and 5% (v/v) FBS treated twice with dextran-coated charcoal to remove endogenous steroids. Cells were plated in 24-well Falcon plastic culture plates (2 cm^2/well) at the indicated density and allowed to adhere to the surface of the plates for 72 h. Thereafter, medium was replaced with fresh medium containing the indicated concentrations of compounds diluted from 1000×stock solutions in 99% redistilled ethanol in the presence or absence of E2. Control cells received only the ethanolic vehicle (0.1% EtOH,v/v). Cells were incubated for the specified time intervals with medium changes at 2-or 3-day intervals. Cell number was determined by measurement of DNA content.
Dose-response curves as well IC50 values were calculated using a weighted iterative nonlinear least-squares regression. All results are expressed as means±SEM.

[5] = alone, absence of estrone, both doses used

Q: What does the source list for CC1=C(c2ccc(O)cc2)[C@H](c2ccc(OCCN3CCCCC3)cc2)Oc2cc(O)ccc21.Cl [EM-652.HCl, (S)-(+)-7-hydroxy-3-(4′-hydroxyphenyl)-4-methyl-2-(4″-(2′″-piperidinoethoxy)phenyl)-2H-1-benzopyran hydrochloride]?
A: Inhibition of estrone-stimulated uterine weight ([1]; 1 μg daily oral): 24%; Inhibition of estrone-stimulated vaginal weight ([1]; 1 μg daily oral): 10%; Inhibition of estrone-stimulated uterine weight ([1]; 3 μg daily oral): 48%; Inhibition of estrone-stimulated vaginal weight ([1]; 3 μg daily oral): 25%; Inhibition of estrone-stimulated uterine weight ([1]; 10 μg daily oral): 72%; Inhibition of estrone-stimulated vaginal weight ([1]; 10 μg daily oral): 53%; Stimulatory effect on uterine weight [1, 5]: no significant stimulatory effect; Stimulatory effect on vaginal weight [1, 5]: no significant stimulatory effect; OVX-induced fat percentage increase [2]: completely prevented; Serum ALP [2]: 91 ± 6 IU/L; Serum cholesterol [2]: 0.87 ± 0.04 mmol/L; Maximal inhibition of 1 nM E2-induced stimulation of alkaline phosphatase ([3]; 1 nM E2): 98.97 ± 0.174 (18); IC50 ([3]; Homo sapiens, 120 h, 1 nM E2, read-out: Inhibition of 1 nM E2-induced stimulation of alkaline phosphatase IC50): 1.52 ± 0.22 nM; Emax ([3]; Homo sapiens, 120 h, read-out: Maximal stimulation of alkaline phosphatase, % of 1 nM E2 stimulation): 1.88 ± 0.26%; IC50 ([4]; MCF7, MCF-7, Experiment 2): 0.205 nM; IC50 ([4]; MCF7, MCF-7, Experiment 1): 0.796 nM; Maximal stimulation of DNA by tested compounds ([4]; MCF-7, Experiment 1): N.S.; Stimulation of DNA by tested compounds ([4]; MCF-7, Experiment 2): N.S.
